Source: patent publication US7524866B2, “Prevention and treatment of androgen—deprivation induced osteoporosis” (GTx, Inc., priority 2001, dated 2009)

Experiments:
[1] = tested on: orchidectomized rats (ORX); test: Three point bending test of the femoral shaft (Example 4); type: in vivo, rat; conditions: 12 weeks, mean
Experimental: (§1) Eight month-old male Sprague Dawley rats were either sham-operated (SHAM) or orchidectomized (ORX). Treatment began immediately following surgery. The treatment groups were as described in Table 5. Bone strength was evaluated using a compression test at the vertebral body, a three point bending test at the femoral shaft, a compression test at the distal femur and a cantilever compression test of the femoral neck. Prior to mechanical testing, all samples were thawed in cold saline and carefully cleaned of any remaining adherent soft tissue.

[2] = tested on: orchidectomized rats (ORX); test: Compression test of the distal femur (Example 4); type: in vivo, rat; conditions: for Elastic Modulus / Energy / Maximum Load / Stiffness / Toughness / Ultimate Strength: distal femur
Experimental: as §1

[3] = tested on: orchidectomized rats (ORX); test: Cantilever compression test of the femoral neck (Example 4); type: in vivo, rat; conditions: 12 weeks, mean
Experimental: as §1

[4] = tested on: C-telopeptide of rat collagen I in serum; test: Serum RatLaps ELISA, C-telopeptide of type I collagen, orchidectomy model (Example 3); type: in vivo; conditions: orchidectomized rats, 15 and 30 days; Toremifene 5 mg/kg/day, 17-β-estradiol 0.5 mg/kg/day s.c.; FIG. 1
Experimental: Male Sprague-Dawley rats (Harlan Sprague Dawley) were placed on study at 14-weeks of age. They were randomized and divided into five treatment groups: vehicle only (placebo, or P) after sham operation, vehicle only after orchidectomy (Orx), Toremifene (5 mg/kg/day) after sham-operation, and Toremifene after orchidectomy, and 17-β-estradiol (0.5 mg/kg/day) after orchidectomy. Test articles were delivered subcutaneously by Alzet pumps. Pumps were re-implanted every 30 days until the end of the study. Five to six animals from each group were sacrificed after 60 and 120 days of treatment, and femurs were harvested, stripped of soft tissue and muscle, and stored individually in polypropylene vials at −80° C. until analysis of bone density and mechanical strength testing. Additionally, serum was collected on days 15, 30, 60, 90 and 120, to measure markers of bone metabolism and to perform serum chemistry. […]
The assay was performed in duplicates, each 20 ul of serum as well as standards and control. […] After washing the strips 100 ul of the Chromogenic Substrate Solution was added to each well, and after 15 min the reaction was stopped and the absorbance was measured at 450 nm. The means of the duplicate absorbance determination were calculated, and a standard curve was constructed using 4-parametric logistic curve fit. Sample RatLaps concentrations were determined by interpolation.

[5] = tested on: men with high-grade prostatic intraepithelial neoplasia (HGPIN); test: Phase IIa clinical trial: bone turnover markers (serum calcium, alkaline phosphatase) in men treated with Toremifene; type: in vivo, human; conditions: 18 men with HGPIN, 60 mg/d Toremifene
Experimental: In a Phase IIa clinical trial to determine whether Toremifene has chemopreventive activity against prostate cancer, 18 men with high-grade prostatic intraepithelial neoplasia (HGPIN) were treated with 60 mg/d of Toremifene for 4 months.

[6] = Toremifene 5 mg/kg/d, Estradiol 0.2 mg/kg/d
[7] = Week 12, 5 mg/kg/d of Toremifene, Estradiol 0.2 mg/kg/d
[8] = week 6, mean, Toremifene 5 mg/kg/d, Estradiol 0.2 mg/kg/d
[9] = week 6, mean, Toremifene 10 mg/kg/d
[10] = week 12, mean, Toremifene 5 mg/kg/d, Estradiol 0.2 mg/kg/d
[11] = week 12, mean, Toremifene 10 mg/kg/d

Compound: CN(C)CCOc1ccc(/C(=C(/CCCl)c2ccccc2)c2ccccc2)cc1 [Toremifene]
- Elastic Modulus [1, 6]: 4505.90 MPa
- Energy [1, 6]: 83.40 mJ
- Maximum Load [1, 6]: 263.54 N
- Stiffness [1, 6]: 944.78 N/mm
- Toughness [1, 6]: 5.67 MJ/m^3
- Ultimate Strength [1, 6]: 150.45 N/mm^2
- Elastic Modulus ([1]; Toremifene 10 mg/kg/d): 4557.46 MPa
- Energy ([1]; Toremifene 10 mg/kg/d): 88.58 mJ
- Maximum Load ([1]; Toremifene 10 mg/kg/d): 272.56 N
- Stiffness ([1]; Toremifene 10 mg/kg/d): 910.47 N/mm
- Toughness ([1]; Toremifene 10 mg/kg/d): 6.16 MJ/m^3
- Ultimate Strength ([1]; Toremifene 10 mg/kg/d): 161.23 N/mm^2
- bone strength, compression test of the distal femur ([2]; Week 6): bone strength similar to that of Sham-operated animals
- bone strength, compression test of the distal femur [2, 7]: maintained similar strength
- bone strength, compression test of the distal femur ([2]; Week 12, 10 mg/kg/d Toremifene): small decrease in strength
- Elastic Modulus [2, 8]: 535.08 MPa
- Energy [2, 8]: 56.00 mJ
- Maximum Load [2, 8]: 469.64 N
- Stiffness [2, 8]: 4058.07 N/mm
- Toughness [2, 8]: 0.81 MJ/m^3
- Ultimate Strength [2, 8]: 20.54 N/mm^2
- Elastic Modulus [2, 9]: 440.77 MPa
- Energy [2, 9]: 66.19 mJ
- Maximum Load [2, 9]: 447.29 N
- Stiffness [2, 9]: 3549.70 N/mm
- Toughness [2, 9]: 0.91 MJ/m^3
- Ultimate Strength [2, 9]: 18.47 N/mm^2
- Elastic Modulus [2, 10]: 379.32 MPa
- Energy [2, 10]: 53.13 mJ
- Maximum Load [2, 10]: 458.79 N
- Stiffness [2, 10]: 3175.07 N/mm
- Toughness [2, 10]: 0.69 MJ/m^3
- Ultimate Strength [2, 10]: 18.09 N/mm^2
- Elastic Modulus [2, 11]: 418.05 MPa
- Energy [2, 11]: 45.57 mJ
- Maximum Load [2, 11]: 411.45 N
- Stiffness [2, 11]: 3366.63 N/mm
- Toughness [2, 11]: 0.62 MJ/m^3
- Ultimate Strength [2, 11]: 16.81 N/mm^2
- Energy ([3]; 5 mg/kg/d): 46.53 mJ
- Maximum Load ([3]; 5 mg/kg/d): 116.46 N
- Stiffness ([3]; 5 mg/kg/d): 211.77 N/mm
- Energy ([3]; 10 mg/kg/d): 44.59 mJ
- Maximum Load ([3]; 10 mg/kg/d): 117.50 N
- Stiffness ([3]; 10 mg/kg/d): 211.73 N/mm
- C-telopeptide levels in serum [4]: reduced the C-telopeptide levels to or below control values
- alkaline phosphatase, change compared to baseline (mean) ([5]; Day 60, p<0.001): −18.7
- alkaline phosphatase, change compared to baseline (mean) ([5]; Day 120, p<0.001): −21.0
- serum calcium, reduction from baseline (mean) ([5]; Day 120, p=0.005): −0.12

Compound: C[C@]12CC[C@@H]3c4ccc(O)cc4CC[C@H]3[C@@H]1CC[C@@H]2O [17-β-Estradiol]
- Elastic Modulus [1, 6]: 5149.41 MPa
- Energy [1, 6]: 98.61 mJ
- Maximum Load [1, 6]: 287.22 N
- Stiffness [1, 6]: 986.71 N/mm
- Toughness [1, 6]: 6.85 MJ/m^3
- Ultimate Strength [1, 6]: 172.51 N/mm^2
- bone strength, compression test of the distal femur ([2]; Week 6): highest values in all groups
- bone strength, compression test of the distal femur [2, 7]: highest values at Week 12
- Elastic Modulus [2, 8]: 579.48 MPa
- Energy [2, 8]: 66.00 mJ
- Maximum Load [2, 8]: 561.45 N
- Stiffness [2, 8]: 4758.55 N/mm
- Toughness [2, 8]: 0.91 MJ/m^3
- Ultimate Strength [2, 8]: 22.89 N/mm^2
- Elastic Modulus [2, 10]: 473.02 MPa
- Energy [2, 10]: 55.94 mJ
- Maximum Load [2, 10]: 487.94 N
- Stiffness [2, 10]: 3714.71 N/mm
- Toughness [2, 10]: 0.78 MJ/m^3
- Ultimate Strength [2, 10]: 20.66 N/mm^2
- Energy ([3]; 0.2 mg/kg/d): 40.07 mJ
- Maximum Load ([3]; 0.2 mg/kg/d): 114.96 N
- Stiffness ([3]; 0.2 mg/kg/d): 209.95 N/mm
- C-telopeptide levels in serum [4]: reduced the C-telopeptide levels to or below control values
